Measured values from patent US8420820B2, “Pyrrolopyridinylpyrimidin-2-ylamine derivatives” (Merck Patent GmbH, priority 2008, dated 2013).

Key:
[1] = system: PDK1 kinase activity in PC3 cells (phospho-T308-PKB); test: Cellular testing of PDK1 kinase inhibitors in PC3 cells (Luminex, phospho-T308-PKB); format: cell-based; settings: Homo sapiens, PC-3, 0.5 h, 30 min with test substance, serum-free, phospho-T308-PKB by Luminex, read-out: IC50 [PC3 P-PKB Thr308]
In short: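 Serum-starved PC3 cells treated 30 min with compound (7-point dilution); lysates captured on anti-total-PKB Luminex beads, with phospho-T308-PKB detected by antibody. Signals corrected by 10 μM staurosporine blank, expressed as percent of 0.3% DMSO control, giving IC50.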

A2780 (ovary) = test: Tumour cell proliferation/vitality assay (Alamar Blue); format: cell-based; settings: Homo sapiens, 96 h, A2780 cells, 4 days of cultivation with test substance
Procedure: In the present experiment description, the inhibition of tumour cell proliferation/tumour cell vitality by active ingredients is described.
The cells are sown in a suitable cell density in microtitre plates (96-well format) and the test substances are added in the form of a concentration series. After four further days of cultivation in serum-containing medium, the tumour cell proliferation/tumour cell vitality can be determined by means of an Alamar Blue test system.
The cells are cultivated in medium. At intervals of several days, the cells are detached from the culture dishes with the aid of trypsin solution and sown in suitable dilution in fresh medium. The cells are cultivated at 37° Celsius and 10% CO2.
A defined number of cells (for example 2000 cells) per culture/well in a volume of 180 μl of culture medium are sown in microtitre plates (96 well cell-culture plates) using a multichannel pipette. The cells are subsequently cultivated in a CO2 incubator (37° C. and 10% CO2).
The test substances are dissolved, for example, in DMSO and subsequently employed in corresponding concentration (if desired in a dilution series) in the cell culture medium. The dilution steps can be adapted depending on the efficiency of the active ingredients and the desired spread of the concentrations. Cell culture medium is added to the test substances in corresponding concentrations. The addition of the test substances to the cells can take place on the same day as the sowing of the cells. To this end, in each case 20 μl of substance solution from the predilution plate are added to the cultures/wells. The cells are cultivated for a further 4 days at 37° Celsius and 10% CO2.
In each case, 20 μl of Alamar Blue reagent are added per well, and the microtitre plates are incubated, for example, for a further seven hours in a CO2 incubator (at 37° C. and 10% CO2). The plates are measured in a reader with a fluorescence filter at a wavelength of 540 nm. The plates can be shaken gently immediately before the measurement.
The absorbance value of the medium control (no cells and test substances used) is subtracted from all other absorbance values. The controls (cells without test substance) are set equal to 100 percent, and all other absorbance values are set in relation thereto (for example in % of control):
IC50 values (50% inhibition) are determined with the aid of statistics programs, such as, for example, RS1.

PDK1 = molecular target: T1, PDK1 (Homo sapiens, UniProt O15530); test: Test for the inhibition of PDK1 (flashplate, 33P-ATP); format: biochemical; settings: His6-PDK1 3.4 nM, 4 μM ATP, 30° C., 60 min
T1 construct: His6 (N)
In short: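 His6-PDK1(1-50) at 3.4 nM with biotinylated peptide substrate (400 nM) and 4 μM ATP plus 33P-ATP, 60 min at 30° C. Incorporated radioactivity counted; blank from 100 nM staurosporin subtracted. Activity given as % of no-compound control; IC50 from dilution series.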

T1 sequence (O15530 51-556): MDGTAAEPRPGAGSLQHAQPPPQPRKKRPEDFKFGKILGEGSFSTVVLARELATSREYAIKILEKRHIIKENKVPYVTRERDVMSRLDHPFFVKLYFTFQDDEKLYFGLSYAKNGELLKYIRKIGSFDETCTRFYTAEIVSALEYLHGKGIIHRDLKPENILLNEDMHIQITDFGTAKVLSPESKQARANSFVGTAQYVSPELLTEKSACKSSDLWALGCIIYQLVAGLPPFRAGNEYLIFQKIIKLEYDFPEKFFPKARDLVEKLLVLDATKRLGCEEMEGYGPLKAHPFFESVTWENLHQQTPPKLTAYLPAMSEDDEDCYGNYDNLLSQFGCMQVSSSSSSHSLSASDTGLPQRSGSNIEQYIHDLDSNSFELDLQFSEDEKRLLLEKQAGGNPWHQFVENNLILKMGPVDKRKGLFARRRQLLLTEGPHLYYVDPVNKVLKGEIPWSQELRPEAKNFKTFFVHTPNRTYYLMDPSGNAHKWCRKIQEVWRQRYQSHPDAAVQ

Row | IC50 [1] [µM] | IC50 (A2780 (ovary)) [µM] | IC50 (PDK1) [µM] | Structure (SMILES)
1 | 10 to 20 | 0.01 to 1 | 0.01 to 1 | CCc1cc(-c2c[nH]c3ncc(-c4cnn(CC5CCCO5)c4)cc23)nc(N)n1 (stereo not shown) [Compound A2, 4-ethyl-6-{5-[1-(tetrahydrofuran-2-ylmethyl)-1H-pyrazol-4-yl]-1H-pyrrolo[2,3-b]pyridin-3-yl}-pyrimidin-2-ylamine]
2 | 10 to 20 | 0.01 to 1 | 0.01 to 1 | CCc1cc(-c2c[nH]c3ncc(-c4cnn(CCNC)c4)cc23)nc(N)n1 [Compound A3, 4-ethyl-6-{5-[1-(2-methylaminoethyl)-1H-pyrazol-4-yl]-1H-pyrrolo[2,3-b]pyridin-3-yl}pyrimidin-2-yl]
3 | 1 to 10 | 1 to 10 | 0.01 to 1 | CCc1cc(-c2c[nH]c3ncc(-c4cnn(CCCN(C)C)c4)cc23)nc(N)n1 [Compound A4, 4-{5-[1-(3-dimethylaminopropyl)-1H-pyrazol-4-yl]-1H-pyrrolo[2,3-b]pyridin-3-yl}-6-ethylpyrimidin-2-ylamine]
4 | 1 to 10 | 0.01 to 1 | 0.01 to 1 | CCc1cc(-c2c[nH]c3ncc(-c4cnn(C5CCN(C)CC5)c4)cc23)nc(N)n1 [Compound A5, 4-ethyl-6-{5-[1-(1-methylpiperidin-4-yl)-1H-pyrazol-4-yl]-1H-pyrrolo[2,3-b]pyridin-3-yl}-pyrimidin-2-ylamine]
5 | 10 to 20 | 1 to 10 | 0.01 to 1 | CCc1cc(-c2c[nH]c3ncc(-c4cnn(C5CCNCC5)c4)cc23)nc(N)n1 [Compound A6, 4-ethyl-6-[5-(1-piperidin-4-yl-1H-pyrazol-4-yl)-1H-pyrrolo[2,3-b]pyridin-3-yl]pyrimidin-2-ylamine]
6 | 10 to 20 | 0.01 to 1 | 0.01 to 1 | CCc1cc(-c2c[nH]c3ncc(-c4cnn(CCN5CCCC5)c4)cc23)nc(N)n1 [Compound A7, 4-ethyl-6-{5-[1-(2-pyrrolidin-1-ylethyl)-1H-pyrazol-4-yl]-1H-pyrrolo[2,3-b]pyridin-3-yl}pyrimidin-2-ylamine]
7 | 1 to 10 | 1 to 10 | 0.01 to 1 | CCc1cc(-c2c[nH]c3ncc(-c4cnn(CCN5CCOCC5)c4)cc23)nc(N)n1 [Compound A8, 4-ethyl-6-{5-[1-(2-morpholin-4-ylethyl)-1H-pyrazol-4-yl]-1H-pyrrolo[2,3-b]pyridin-3-yl}pyrimidin-2-ylamine]
8 | 0.01 to 1 | 0.01 to 1 | 0.01 to 1 | CC(C)n1cc(-c2cnc3[nH]cc(-c4cc(C(C)(O)c5ccccc5)nc(N)n4)c3c2)cn1 (stereo not shown) [Compound A55, 1-{2-Amino-6-[5-(1-isopropyl-1H-pyrazol-4-yl)-1H-pyrrolo[2,3-b]pyridin-3-yl]-pyrimidin-4-yl}-1-phenylethanol]
9 | 0.01 to 1 | 0.01 to 1 | 0.01 to 1 | CCC(O)(c1ccccc1)c1cc(-c2c[nH]c3ncc(-c4cnn(C(C)C)c4)cc23)nc(N)n1 (stereo not shown) [Compound A59, 1-{2-amino-6-[5-(1-isopropyl-1H-pyrazol-4-yl)-1H-pyrrolo[2,3-b]pyridin-3-yl]pyrimidin-4-yl}-1-phenylpropan-1-ol]
10 | 1 to 10 | 0.01 to 1 | 0.01 to 1 | CCC[C@H](O)c1cc(-c2c[nH]c3ncc(-c4cnn(C(C)C)c4)cc23)nc(N)n1 [Compound A90, (S)-1-{2-Amino-6-[5-(1-isopropyl-1H-pyrazol-4-yl)-1H-pyrrolo[2,3-b]pyridin-3-yl]pyrimidin-4-yl}butan-1-ol]
11 | 0.01 to 1 | 0.01 to 1 | 0.01 to 1 | CCC[C@@H](O)c1cc(-c2c[nH]c3ncc(-c4cnn(C(C)C)c4)cc23)nc(N)n1 [Compound A91, (R)-1-{2-Amino-6-[5-(1-isopropyl-1H-pyrazol-4-yl)-1H-pyrrolo[2,3-b]pyridin-3-yl]pyrimidin-4-yl}butan-1-ol]
12 | 1 to 10 | 1 to 10 | 0.01 to 1 | CC(C)C(O)c1cc(-c2c[nH]c3ncc(-c4cnn(C(C)C)c4)cc23)nc(N)n1 (stereo not shown) [Compound A102, 1-{2-Amino-6-[5-(1-isopropyl-1H-pyrazol-4-yl)-1H-pyrrolo[2,3-b]pyridin-3-yl]-pyrimidin-4-yl}-2-methylpropan-1-ol]
13 | 1 to 10 | – | 1 to 10 | Nc1nc(-c2c[nH]c3ncccc23)cc(C2(O)CCN(C(=O)OCc3ccccc3)CC2)n1 [Compound A113, 4-[2-Amino-6-(1H-pyrrolo[2,3-b]pyridin-3-yl)pyrimidin-4-yl]-4-hydroxypiperidine-1-carboxylic acid benzyl ester]
14 | 10 to 20 | – | 1 to 10 | CC(C)n1cc(-c2cnc3[nH]cc(-c4cc(C(O)c5ccccc5)nc(N)n4)c3c2)cn1 (stereo not shown) [Compound A115, {2-Amino-6-[5-(1-isopropyl-1H-pyrazol-4-yl)-1H-pyrrolo[2,3-b]pyridin-3-yl]-pyrimidin-4-yl}phenylmethanol]
15 | 1 to 10 | – | 0.01 to 1 | CCc1cc(-c2c[nH]c3ncc(-c4cnn(C(C)C(=O)Nc5ccc6[nH]ccc6c5)c4)cc23)nc(N)n1 (stereo not shown) [Compound A121, 2-{4-[3-(2-Amino-6-ethylpyrimidin-4-yl)-1H-pyrrolo[2,3-b]pyridin-5-yl]pyrazol-1-yl}-N-(1H-indol-5-yl)propionamide]
16 | 10 to 20 | – | 0.01 to 1 | CC(C)n1cc(-c2cnc3[nH]cc(-c4cc(C5(O)CCN(C(=O)OCc6ccccc6)CC5)nc(N)n4)c3c2)cn1 [Compound A122, 4-{2-Amino-6-[5-(1-isopropyl-1H-pyrazol-4-yl)-1H-pyrrolo[2,3-b]pyridin-3-yl]-pyrimidin-4-yl}-4-hydroxypiperidine-1-carboxylic acid benzyl ester]
17 | 0.01 to 1 | 0.01 to 1 | 0.01 to 1 | CC(C)n1cc(-c2cnc3[nH]cc(-c4cc([C@](C)(O)c5ccccc5)nc(N)n4)c3c2)cn1 [Compound A123, (R)-1-{2-Amino-6-[5-(1-isopropyl-1H-pyrazol-4-yl)-1H-pyrrolo[2,3-b]pyridin-3-yl]pyrimidin-4-yl}-1-phenylethanol]
18 | 0.01 to 1 | 0.01 to 1 | 0.01 to 1 | CC(C)n1cc(-c2cnc3[nH]cc(-c4cc([C@@](C)(O)c5ccccc5)nc(N)n4)c3c2)cn1 [Compound A124, (S)-1-{2-Amino-6-[5-(1-isopropyl-1H-pyrazol-4-yl)-1H-pyrrolo[2,3-b]pyridin-3-yl]pyrimidin-4-yl}-1-phenylethanol]
19 | 10 to 20 | – | 1 to 10 | CC(C)n1cc(-c2cnc3[nH]cc(-c4cc(C5(O)CCNCC5)nc(N)n4)c3c2)cn1 [Compound A125, 4-{2-Amino-6-[5-(1-isopropyl-1H-pyrazol-4-yl)-1H-pyrrolo[2,3-b]pyridin-3-yl]-pyrimidin-4-yl}piperidin-4-ol]
20 | 1 to 10 | – | 0.01 to 1 | CCc1cc(-c2c[nH]c3ncc(-c4cnn(CC(=O)N5CCCc6ccccc65)c4)cc23)nc(N)n1 [Compound A128, 2-{4-[3-(2-Amino-6-ethylpyrimidin-4-yl)-1H-pyrrolo[2,3-b]pyridin-5-yl]pyrazol-1-yl}-1-(3,4-dihydro-2H-quinolin-1-yl)ethanone]

Row | Structure (SMILES) | IC50 [1] [µM] | IC50 (A2780 (ovary)) [µM] | IC50 (PDK1) [µM]
21 | CC(C)N1CCC(O)(c2cc(-c3c[nH]c4ncc(-c5cnn(C(C)C)c5)cc34)nc(N)n2)CC1 [Compound A114, 4-{2-Amino-6-[5-(1-isopropyl-1H-pyrazol-4-yl)-1H-pyrrolo[2,3-b]pyridin-3-yl]-pyrimidin-4-yl}-1-isopropylpiperidin-4-ol] | 10 to 20 | – | 0.01 to 1
22 | CC(C)n1cc(-c2cnc3[nH]cc(-c4cc(C5(O)CCN(CCc6ccc(F)cc6)CC5)nc(N)n4)c3c2)cn1 [Compound A116, 4-{2-Amino-6-[5-(1-isopropyl-1H-pyrazol-4-yl)-1H-pyrrolo[2,3-b]pyridin-3-yl]-pyrimidin-4-yl}-1-[2-(4-fluorophenyl)ethyl]piperidin-4-ol] | 10 to 20 | – | 0.01 to 1
